Data on two compounds can be found in patent US20180338955A1, “METHODS FOR REGULATION AND TREATMENT OF GLIOMA CELL MIGRATION AND GLIOBLASTOMA” (priority 2015, published 2018).

Data set [1] concerns U87 glioma cells. Conditions: U87 glioma cells cultured on tenascin and vitronectin; cited from earlier work.
For data set [2], the system named is glioma xenografts. The note with it: in vivo; cited from earlier work.
Data set [3] has as its system phospho(Y118)-paxillin. The experiment in a line: Western blot of hGSC lysates for phospho(Y118)-paxillin. Conditions: hGSCs (GSC1, GSC2) on fibronectin, 500 nM, 2 hours. It counts as cell-based, human. From the text: (§1) For total cell lysates, cultures were lysed in 1×SDS lysis buffer supplemented with protease and phosphatase inhibitors (Sigma). Lysates were sonicated and cleared by centrifugation. Samples were separated on 4-12% Bis-Tris SDS-PAGE gels (NuPAGE), transferred on to nitrocellulose and immunoblotted using the following primary antibodies: p(Y418)-Src family, Lck (D88), […], pCrkII (Cell Signaling), mortalin (a kind gift of Dr. Alice Cavanaugh), and β-actin (Sigma). A custom phospho-specific polyclonal antibody was generated against p(Y394)-Lck and affinity-purified against total Lck, Fyn and Lyn (Thermo Fisher). Secondary antibodies used were HRP-conjugate goat anti-mouse and goat anti-rabbit (Cell Signaling). Semi-quantitative analysis was conducted with FluorChem SP analytical software. Statistical significance was determined by the two-tailed Student's t-test.
(In general: In western blotting, separated proteins are transferred to a membrane and probed.)

In data set [4] the test system is human glioblastoma (hGSCs). The experiment in a line: Orthotopic xenograft mouse model of human glioblastoma. It counts as in vivo, Nu/J mice. The procedure: To determine the effect of inhibition of Lck signaling in human glioma formation in vivo, Applicants used an orthotopic xenograft mouse model of human glioblastoma (Singh et al., 2004; Valadez et al., 2014). Applicants injected under stereotactic guidance 200,000 hGSCs at coordinates −2.0 mm AP and +1.5 mm ML relative to Bregma. The Lck-I or the PBS/DMSO were administered through an Alzet pump in the lateral ventricle continuously for 4 weeks. Brains were formalin fixed and stained for human Ki67 4 weeks after the implantation.
Intracranial injections were performed using a stereotaxic apparatus (Kopf) on 8-week-old Nu/J mice initially sedated with 4% isoflurane and maintained with 2% isoflurane. After leveling the skull, a hole was drilled with a #72 micro drill bit (Kyocera) at coordinates −2.0 mm AP and +1.5 mm ML relative to Bregma. A 75 RN Hamilton syringe was then lowered to a depth of −2.5 mm DV at a rate of 0.5 mm per minute, and 200,000 primary GSCs from donor 2 resuspended in a total volume of 4 μl were injected at a rate of 0.5 μl per minute using a Stoelting Quintessiential Stereotaxic Injector. In order to reduce backflow, the syringe was allowed to rest for 2 minutes post-injection before it was withdrawn at a rate of 0.5 mm per minute, and the cavity was immediately sealed with bone wax (Ethicon). A subcutaneous pocket was formed, and an Alzet osmotic pump 1004 fitted with brain infusion kit 3 and containing either 1.175 mg of A77 (Axon Medchem) or DMSO/Kolliphor ELP vehicle was inserted near the left hind limb of the animal. A second hole was drilled at coordinates of +0.5 mm and +1.1 mm ML relative to Bregma with the same micro drill bit to allow placement of the brain infusion catheter in the right lateral ventricle. The brain infusion catheter was lowered into the brain and glued to the skull using Loctite 454 cyanoacrylate adhesive. The incision was sealed using veterinary tissue glue and a dab of antibiotic ointment was placed over the head and neck. Animals were monitored daily for weight loss, pain and distress. After four weeks, animals were euthanized with pentobarbital and perfused with 4% formaldehyde. Brains were harvested, post-fixed in 4% formaldehyde, and processed for paraffin embedding. Paraffin embedded tissue was sliced on a microtome to […] sections and placed on microscope slides. Tissues were stained for H&E and ki67 (Roche) using a Ventana Autostainer. Images were captured using a Zeiss Axiovert inverted microscope.
(In general: Xenograft models place foreign cells or tissue in a host animal.)

The target of data set [5] is T1, Lyn (Homo sapiens, UniProt P07948). The note with it: cited from earlier work.
Target sequence in this assay (P07948 whole entry, species assumed): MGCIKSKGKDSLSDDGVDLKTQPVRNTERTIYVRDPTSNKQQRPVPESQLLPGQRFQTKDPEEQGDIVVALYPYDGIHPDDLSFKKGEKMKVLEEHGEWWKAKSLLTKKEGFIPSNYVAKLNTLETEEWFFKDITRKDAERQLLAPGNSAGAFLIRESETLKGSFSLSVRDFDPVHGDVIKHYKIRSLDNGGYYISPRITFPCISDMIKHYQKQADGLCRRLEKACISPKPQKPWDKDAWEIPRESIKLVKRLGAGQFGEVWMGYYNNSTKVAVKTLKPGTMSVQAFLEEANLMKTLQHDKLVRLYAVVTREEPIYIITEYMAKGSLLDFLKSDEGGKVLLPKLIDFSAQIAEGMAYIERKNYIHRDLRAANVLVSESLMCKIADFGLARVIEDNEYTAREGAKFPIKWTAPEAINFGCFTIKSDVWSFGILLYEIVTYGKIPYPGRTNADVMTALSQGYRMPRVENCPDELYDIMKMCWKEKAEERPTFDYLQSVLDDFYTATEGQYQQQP
In data set [6] the test system is human GSCs. Briefly: Migration of human GSCs on purified DRG axon cultures. Format: cell-based. Conditions: purified DRG axons, 72 hours. The procedure:
To assess the effect of the Lck inhibitor on migrating glioma cells, GBM spheres were seeded on rat DRG cultures in Supplemented NB-A Medium containing 10% FBS. Spheres were allowed to attach for one hour. Cultures were treated with 500 nM of Lck inhibitor or DMSO vehicle for 72 hours. Samples were fixed in 4% formaldehyde for 10 minutes, permeabilized and blocked with 5% normal goat serum containing 0.3% Triton X-100 in 1×PBS (Sigma) at RT for 1 hour. The samples were stained overnight at 4° C. with Ki67 (Cell Signaling), GFAP (DAKO) and NF (EnCor Biotechnology). Area of glioma stem cell migration for each sample was calculated by normalizing the total area of migration to the interior area of the non-migrating sphere mass. Differences between groups were then confirmed using Student's test.

Data set [7] addresses T2, Fyn (Homo sapiens, UniProt P06241). Briefly: Immunoprecipitation/Western blot, phosphorylation state of Fyn. Format: cell-based. Conditions: human glioma cells, 500 nm. The procedure: (§2) For immunoprecipitation studies, U87 MG cells treated with A77 or DMSO vehicle were lysed in 1×RIPA buffer containing protease and phosphatase inhibitors (Sigma). Lysates were cleared via centrifugation and were pre-cleared with TrueBlot anti-rabbit IgG beads (eBiosience) to remove non-specific binding. Primary antibodies against Lck, Src, Fyn, Lyn or Yes (Cell Signaling) were added and the lysates were incubated overnight at 4° C. with gentle rotation. The following day, TrueBlot anti-rabbit IgG (eBioscience) beads were added to the lysate and incubated at 4° C. for 2 hours. Immunoprecipitates were washed, solubilized in 2×Laemmli buffer and boiled for 5 minutes. The supernatants were separated on an 8% Bis-Tris SDS-PAGE gel, transferred to nitrocellulose and immunoblotted.
Target sequence in this assay (P06241 whole entry): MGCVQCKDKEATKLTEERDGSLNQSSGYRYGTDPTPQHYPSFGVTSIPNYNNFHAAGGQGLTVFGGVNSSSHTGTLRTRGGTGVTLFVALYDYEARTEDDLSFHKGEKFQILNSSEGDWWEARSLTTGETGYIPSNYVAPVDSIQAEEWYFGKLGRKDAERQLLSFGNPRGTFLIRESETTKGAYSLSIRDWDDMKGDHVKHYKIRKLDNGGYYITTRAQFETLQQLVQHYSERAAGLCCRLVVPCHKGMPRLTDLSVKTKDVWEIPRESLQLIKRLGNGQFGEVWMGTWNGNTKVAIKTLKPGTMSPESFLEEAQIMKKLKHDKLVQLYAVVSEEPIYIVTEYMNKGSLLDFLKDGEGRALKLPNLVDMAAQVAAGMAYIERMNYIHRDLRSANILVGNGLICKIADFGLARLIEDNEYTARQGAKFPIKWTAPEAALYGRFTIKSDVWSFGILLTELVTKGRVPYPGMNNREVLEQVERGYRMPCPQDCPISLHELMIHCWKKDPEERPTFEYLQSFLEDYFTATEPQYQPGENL

The subject of data set [8] is phospho(Y221)-CrkII. The experiment in a line: Western blot of hGSC lysates for phospho(Y221)-CrkII. It counts as cell-based, human. Conditions: hGSCs (GSC1, GSC2) on fibronectin, 500 nM, 2 hours.
Description: as §1

Data set [9] concerns human GSCs. Briefly: xCELLigence impedance assay of cell spreading/migration. It counts as cell-based. Conditions: 500 nM, versus DMSO. The procedure: The xCELLigence system was used to perform cell migration assays on the RTCA DP instrument. Electrical impedance due to cell migration is represented as cell index. GBM cells were seeded on fibronectin coated wells of the RTCA CIM-plate 16 (ACEA Biosciences) and allowed to attach and spread for 1 hour at room temperature. After 1 hour, wells were treated with DMSO vehicle or 500 nM Lck inhibitor. As cells migrated towards the lower chamber containing 10% FBS with DMSO vehicle or 500 nM Lck inhbitor, measurements were captured every 5 minutes. Cell index data was plotted overtime and the slope between 2 and 6 hours was calculated.

In data set [10] the target is T1, Lyn. The experiment in a line: Immunoprecipitation/Western blot, phosphorylation state of Lyn. Conditions: human glioma cells, 500 nm. It counts as cell-based. As for the experimental part: as §2
Target sequence in this assay (P07948 whole entry): as the sequence (P07948 whole entry, species assumed) above
The test system of data set [11] is phospho(Y118)-paxillin. The experiment in a line: Immunocytochemistry of phospho(Y118)-paxillin in human GSCs. It counts as cell-based. Conditions: 500 nM, 2 hours, versus control. The procedure:
(§3) To assess pseudopodia formation, GBM stem cells were seeded on fibronectin coated (10 ug/ml, Sigma) glass chamber slides (NUNC) in the presence of serum for 2.5 hours. Cultures were treated with 500 nM of Lck inhibitor or DMSO vehicle for 2 hours and then fixed in 4% formaldehyde. Samples were permeabilized and blocked with 5% normal goat serum containing 0.3% Triton X-100 in 1×PBS (Sigma) at RT for 1 hour. The samples were stained overnight at 4° C. with Phospho-Paxillin (CellSignaling). The following day, secondary antibodies were applied at manufacturer recommended dilutions for 1 hour at RT (Jackson ImmunoResearch). Samples were subsequently stained with Rhodamine RedX Phalloidin (Life Technologies) and Hoescht 33342 (Life Technologies) following manufacturer's protocols. Slides were mounted with Aqua Poly/Mount (Polysciences) and imaged using a Zeiss confocal microscope. Adobe Photoshop was used to count the total number of pseudopodia, which included both axial and radial projections, per cell for each group. Differences between groups were confirmed using Student's t-test.

The subject of data set [12] is human GSCs. The experiment in a line: Migration of human GSCs along parallel DRG axonal bundles (coverslips with parallel scratches). The note with it: human GSC-DRG axon co-cultures, versus DMSO control. It counts as cell-based. The procedure: As inhibition of Lck signalling has a dramatic effect on pseudopodia extension and retraction, Applicants investigated whether Lck may also function to regulate the migration and invasion of human GSCs. […] To assess the effect of Lck signaling on the migration and interaction of hGSCs with DRG axons, Applicants seeded hGSCs on DRG axons and treated the cultures with Lck-I or PBS/DMSO for 72 hours. […] To quantify the effect of Lck inhibition on GSC migration, Applicants added GSCs on DRG axons with and without Lck-I and quantified the surface area covered by the migrating glioma cells using Image-J.

The test system of data set [13] is human GSCs. The experiment in a line: Pseudopodia (lamellipodia) formation of human GSCs on fibronectin. It counts as cell-based. The note with it: fibronectin substrate, 500 nM, 2 hours, versus untreated/DMSO. The procedure:
as §3

Data set [14] relates to human GSCs. Briefly: Invasion in Alvetex scaffold. Format: cell-based. The note with it: 500 nM, 72 hours, versus untreated. As for the experimental part:
Alvetex scaffolds were coated with fibronectin (10 μg/ml) for 2 hours at 37° C. 750,000 GBM cells were plated in the center of each scaffold and allowed to attach for one hour. Cultures were grown in Supplemented NB-A Medium containing 10% FBS. Cultures were treated with 500 nM of Lck inhibitor or DMSO vehicle for 72 hours. Samples were fixed in 4% formaldehyde for 10 minutes, permeabilized with 0.1% Triton X-100 and blocked with 1% BSA-PBS for 30 minutes at room temperature. Samples were subsequently stained with Rhodamine RedX Phalloidin (Life Technologies) and Hoescht 33342 (Life Technologies) following manufacturer's protocols. Slides were mounted with Aqua Poly/Mount (Polysciences) and imaged using a Zeiss confocal microscope.

The target in data set [15] is T3, phospho(Y394)-Lck (Homo sapiens, UniProt P06239).
T3 construct: hGSCs isolated from two patients with glioblastomas (GSC1 and GSC2) left untreated or treated with 500 nM Lck-I for 2 hours; endogenous in cells; host or cells: primary human glioma stem cells (GSC1, GSC2) from two glioblastoma patients
Briefly: Western blot of hGSC lysates for phospho(Y394)-Lck. Conditions: hGSCs (GSC1, GSC2) on fibronectin, 500 nM, 2 hours. Format: cell-based.
Description: For total cell lysates, cultures were lysed in 1×SDS lysis buffer supplemented with protease and phosphatase inhibitors (Sigma). Lysates were sonicated and cleared by centrifugation. […] A custom phospho-specific polyclonal antibody was generated against p([MUT])-Lck and affinity-purified against total Lck, Fyn and Lyn (Thermo Fisher). Secondary antibodies used were HRP-conjugate goat anti-mouse and goat anti-rabbit (Cell Signaling). Semi-quantitative analysis was conducted with FluorChem SP analytical software. Statistical significance was determined by the two-tailed Student's t-test.

Data set [16] addresses T2, Fyn. The note with it: cited from earlier work.
Target sequence in this assay (P06241 whole entry, species assumed): as the sequence (P06241 whole entry) above
[17] abbreviates: continuous infusion in the lateral ventricle for 4 weeks, n=5.

“Also recorded” adds a separate entry of the source.

T3 sequence (P06239 whole entry): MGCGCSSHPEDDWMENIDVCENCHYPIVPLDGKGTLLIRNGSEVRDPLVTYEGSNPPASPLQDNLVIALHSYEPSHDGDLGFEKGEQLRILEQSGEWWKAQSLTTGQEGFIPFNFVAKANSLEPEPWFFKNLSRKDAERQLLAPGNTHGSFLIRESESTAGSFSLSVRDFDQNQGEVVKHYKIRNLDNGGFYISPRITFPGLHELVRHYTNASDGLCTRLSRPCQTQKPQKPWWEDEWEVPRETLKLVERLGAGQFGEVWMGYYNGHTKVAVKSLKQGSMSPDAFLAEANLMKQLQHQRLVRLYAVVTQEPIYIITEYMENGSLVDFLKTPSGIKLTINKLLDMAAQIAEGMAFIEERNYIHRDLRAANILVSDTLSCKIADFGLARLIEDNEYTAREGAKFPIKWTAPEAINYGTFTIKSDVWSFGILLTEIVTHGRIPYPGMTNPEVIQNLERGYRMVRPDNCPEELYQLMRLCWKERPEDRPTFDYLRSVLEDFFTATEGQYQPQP

`CC(C)[C@H]1C(=O)N[C@@H](CCCN=C(N)N)C(=O)NCC(=O)N[C@@H](CC(=O)O)C(=O)N[C@H](Cc2ccccc2)C(=O)N1C` [EMD121974, Cilengitide]: in data set [1], the apoptosis result was “induces apoptosis”. In addition, the “effect on glioma xenografts” value in data set [2] was “significant regression”.
For the compound `COc1cc(-c2nn([C@H]3CC[C@H](N4CCN(C(C)=O)CC4)CC3)c3ncnc(N)c23)ccc1NC(=O)c1cc2ccccc2n1C` [Lck-I, A770041], the “phosphorylation level of paxillin, phospho(Y118)-paxillin” value in data set [3] is reported as “significantly reduced; also recorded: significant reduction”. The body condition score result in data set [4] (all treated animals, 4 weeks) is “excellent”. In addition, in data set [4] (continuous infusion in the lateral ventricle for 4 weeks), the “side effects of local administration” value is recorded as “no apparent side effects”. In data set [4] (setting [17]), the “invasion/migration of human glioma cells within the brain parenchyma” value was “minimal invasion/integration; also recorded: significant inhibition of tumor migration and invasion; also recorded: minimal invasion and migration”; the tissue necrosis entry is given as “absence of tissue necrosis; also recorded: lack of focal necrosis”. In addition, in data set [4] (continuous infusion in the lateral ventricle for 4 weeks, versus PBS/DMSO, n=5), the tumor formation entry is recorded as “complete lack of solid tumor formation; also recorded: significant inhibition of tumor formation”. The “specificity for Lck over Lyn” value in data set [5] is on record as 8 fold. In [6] (500 nM), the “total area of migration (surface area covered by migrating glioma cells)” value is on record as “significant reduction”. Besides, the “integration of tumor cells within the axonal network” value in data set [6] (n=6) was “almost complete lack of integration; also recorded: limited integration and expansion”. For the same compound, the “migration of individual glioma cells (GFAP+/Ki67+ migrating tumor cells)” value in [6] (versus control) is “inhibition of migration; also recorded: significant decrease”. Besides, in data set [7], the “phosphorylation state of Fyn” value is listed as “does not affect; also recorded: no effect”. Further, the “phosphorylation level of CrkII, phospho(Y221)-CrkII” value in data set [8] is on record as “significantly reduced; also recorded: significant reduction”. The “human GSC migration (surface area by electrical impedance)” value in data set [9] was “significant reduction”. In addition, the “cell spreading (cell processes) after addition” value in [9] (fibronectin-coated plate) is “immediate retraction of cell processes”. The “phosphorylation state of Lyn” value in data set [10] is “does not affect; also recorded: no effect”. Moreover, in [11], the “phospho-paxillin(Y118) staining at focal adhesions” value is “reduced; also recorded: almost complete absence”. For the same compound, the “migration along parallel axonal bundles (finger-like projections)” value in data set [12] is “complete inhibition of migration; also recorded: complete ablation of the finger-like projections”. Also, the “number of pseudopodia (lamellipodia) per cell” value in data set [13] was “significantly reduced; also recorded: significantly lower”. In addition, the “invasion (depth/total area of invasion within scaffold, z-stack confocal)” value in [14] is on record as “significant inhibition; also recorded: significant reduction”. The “phosphorylation level of Lck, phospho(Y394)-Lck” value in [15] is listed as “significantly reduced; also recorded: significant reduction”. Also, in data set [16], the “specificity for Lck over Fyn” value is given as 300 fold.
